Experimental data reported in a melting point compilation (Tetko et al.; mined from patent text by program, amines drawn as free bases though some values may be those of a salt).

Q: Which melting point does the source give for `Cc1ncc2cc(Cl)nc(Cl)n12` here?
A: 134 to 135 °C

Q: With `COc1ccc2c(c1)c(C=O)c(C)n2C(=O)c1ccc(Cl)cc1` as the molecule, how does the melting point read?
A: 150 to 152 °C

Q: Which melting point does the source give for `NC(=O)N1CCC(O[N+](=O)[O-])CC1` here?
A: 110 to 111 °C

Q: With `O=C(Nc1ccc(-n2nc(C(F)(F)F)cc2C(F)(F)F)cc1)c1cncc(Br)c1` as the molecule, how does the melting point read?
A: 155 to 157 °C

Q: With `CC(=CC#N)c1cccc2cc[nH]c12` as the molecule, how does the melting point read?
A: 88 to 90 °C

Q: Which melting point does the source give for `COc1ccc(CNc2ccccc2C(=O)Nc2ccc(Cl)c(C(F)(F)F)c2)cn1` here?
A: 108 to 110 °C

Q: With `Nc1cc(Cl)c(OCc2ccccc2-c2ccccc2)c(Cl)c1` as the molecule, how does the melting point read?
A: 67 to 69 °C

Q: For `CN(C)C(=S)Nc1ccccc1N1CCOCC1`, which melting point is on record?
A: 150 to 152 °C

Q: With `CCCCCCCCCCOc1ccc2c(c1CCC)OC(CCC(=O)O)(CCC(=O)O)CC2=O` as the molecule, how does the melting point read?
A: 144 to 146 °C

Q: Which melting point does the source give for `O=C(O)C1=Cc2ccccc2NC1` here?
A: 223 to 226 °C

Q: Which melting point does the source give for `COc1ccc2sc(C(N)=O)c(SC(C)C)c2c1` here?
A: 143 to 144 °C

Q: Which melting point does the source give for `O=C(O)CCC1c2ccccc2C(=O)N1c1ccccc1` (stereo unspecified) here?
A: 186 to 187 °C

Q: For `CCc1nc2c(c(=O)n(C)c(=O)n2C)n1CCCOc1ccccc1`, which melting point is on record?
A: 107 to 108 °C

Q: For `N#Cc1nn(-c2c(Cl)cc(C(F)(F)F)cc2Cl)c(N)c1C#CCO`, which melting point is on record?
A: 237 to 239 °C

Q: For `CC(C)N1CC(=O)C(C#N)=C1N`, which melting point is on record?
A: 285 to 290 °C

Q: Which melting point does the source give for `CN1CCN(N=C2CC(c3ccc(C(F)(F)F)cc3)Cc3c2c(=O)c2cc(Cl)ccc2n3O)CC1` (stereo unspecified) here?
A: 213 °C

Q: With `CN1C2=C(C(=O)CC(C)(C)C2)C(c2ccc(Cl)c(Oc3ccccc3)c2)C2=C1CC(C)(C)CC2=O` as the molecule, how does the melting point read?
A: 183 to 185 °C

Q: Which melting point does the source give for `CCOC(=O)C(C#N)=CN(C)C1CCCCC1` here?
A: 71 to 72 °C

Q: With `CC(C)(O)C#Cc1cccc(N)c1` as the molecule, how does the melting point read?
A: 118 to 119 °C

Q: With `CCOC(=O)Cn1c2c(n(Cc3ccccc3)c(=O)c1=O)CCC1=C2C=C(N)CC1` as the molecule, how does the melting point read?
A: 231 °C

Q: For `O=C(O)CCCCCCCCCC=Cc1ccccc1`, which melting point is on record?
A: 27 to 27.5 °C

Q: For `CN(C)CCCn1ccc(-c2ccc(F)cc2)c1-c1ccncc1`, which melting point is on record?
A: 93 to 95 °C

Q: With `O=C(Cc1cccc(O)c1)NNC(=O)c1c(O)cc(O)cc1Cl` as the molecule, how does the melting point read?
A: 217 °C

Q: With `CC1(C)OC(=C(C#N)C#N)C(C#N)=C1c1ccc(F)cc1` as the molecule, how does the melting point read?
A: 263 °C

Q: For `O=C(O)c1nccnc1N1CCN(CC(O)CO)CC1` (stereo unspecified), which melting point is on record?
A: 175 to 184 °C

Q: For `CCOc1ccc(F)c2c1c(CCN(C)C)cn2CC`, which melting point is on record?
A: 59 to 60 °C

Q: With `O=C(CCc1ccccc1)N[C@H](Cc1ccc(C(F)(F)F)cc1)[C@@H](O)c1ccc(Oc2ccccc2)cc1` (racemic) as the molecule, how does the melting point read?
A: 133 to 134 °C

Q: For `O=C(OCc1ccccc1)c1cc(Br)c(OCc2ccccc2)cc1OCc1ccccc1`, which melting point is on record?
A: 74 to 76 °C

Q: Which melting point does the source give for `Cc1c(CO)oc2ccc([N+](=O)[O-])cc12` here?
A: 149 to 150 °C

Q: Which melting point does the source give for `Nc1ccc(-n2ccn(-c3ccc(OCC(F)(F)C(F)F)cc3)c2=O)cc1` here?
A: 178 to 179 °C

Q: With `Cc1cccc(C)c1N(CCCC(=O)O)C(=O)CCCN(C(=O)c1ccc(Cl)cc1)c1c(C)cccc1C` as the molecule, how does the melting point read?
A: 129 to 131 °C

Q: Which melting point does the source give for `CCc1cc2cc(F)ccc2[nH]1` here?
A: 41 to 42 °C

Q: Which melting point does the source give for `CC1(c2ccc(COc3ncc(Br)s3)cc2)OCCO1` here?
A: 129 to 131 °C

Q: With `COC(=O)Cn1c(Cl)c(Cl)c(Cl)c1Cl` as the molecule, how does the melting point read?
A: 115 °C

Q: Which melting point does the source give for `CCOC(=O)c1c(N)n(C)c2ccccc12` here?
A: 132 to 134 °C

Q: Which melting point does the source give for `N#CCc1c(Cl)ccc2cc(Cl)cnc12` here?
A: 152 °C

Q: For `Cc1ncccc1Oc1ccc(C(=N)Nc2cc(Cl)cc(NC(=O)C=Cc3ccccc3C(F)(F)F)c2)cc1`, which melting point is on record?
A: 114 to 119 °C

Q: For `O=c1c2ccccc2nc(-c2cc(-c3ccccc3)c(N3CCOCC3)s2)n1-c1ccccc1Cl`, which melting point is on record?
A: 160 to 161 °C

Q: With `N#CC(Cc1ccccn1)(c1ccc(F)cc1)c1ccc([N+](=O)[O-])c(C(F)(F)F)c1` (stereo unspecified) as the molecule, how does the melting point read?
A: 118 to 119 °C

Q: With `Nc1c(CC(=O)O)cccc1Nc1ccc(Cl)cc1` as the molecule, how does the melting point read?
A: 190 to 192 °C

Q: With `COC(=O)c1cc(=O)c2c(C)cc(Br)cc2[nH]1` as the molecule, how does the melting point read?
A: 258 to 259 °C

Q: For `CCSC(=NC(=O)N(C)C)NC(=O)NC`, which melting point is on record?
A: 109 to 112 °C

Q: With `CCOC(=O)CCc1c(OC)cncc1OC` as the molecule, how does the melting point read?
A: 66 to 67 °C

Q: Which melting point does the source give for `COC(=O)c1nn(C)nc1CO` here?
A: 112 to 113 °C

Q: Which melting point does the source give for `O=[N+]([O-])c1ccccc1NCC(F)(F)F` here?
A: 84 to 89 °C

Q: With `O=C(COc1ccccc1)N[C@@H](Cc1ccc(OCCc2coc(-c3ccccc3)n2)cc1)C(=O)O` as the molecule, how does the melting point read?
A: 94 to 97 °C

Q: With `COc1cc2c(cc1Nc1ncc(Cl)c(N[C@@H]3CCCC[C@H]3NS(C)(=O)=O)n1)NC(=O)CN(CC1CC1)C2` as the molecule, how does the melting point read?
A: 97 °C

Q: For `N#Cc1ccc(N2CCC(O)CC2)c2ccccc12`, which melting point is on record?
A: 126 to 127 °C

Q: With `CCOC(=O)c1c(CN(CC)CC)nc2sc3c(c2c1-c1ccc(OC)c(OC)c1)CCNC3` as the molecule, how does the melting point read?
A: 72 to 75 °C

Q: With `c1ccc2c(c1)Cc1ccccc1N2` as the molecule, how does the melting point read?
A: 170 to 171 °C

Q: With `O=C1NCN(c2ccccc2)C12CCN(CCCOc1ccc(F)cc1Cl)CC2` as the molecule, how does the melting point read?
A: 154 to 155 °C

Q: Which melting point does the source give for `CCCCCN1C(=O)CN=C(c2ccccc2)c2ccccc21` here?
A: 93 to 95 °C

Q: For `C=CC(=O)Nc1n[nH]c2cc(Cl)ccc12`, which melting point is on record?
A: 205 °C

Q: With `CC(C)(C)NC(=O)N1CCN(c2ccc3ncc(Br)n3n2)CC1` as the molecule, how does the melting point read?
A: 199 to 200 °C

Q: With `NC(=O)CC(=O)NCCS` as the molecule, how does the melting point read?
A: 100 °C

Q: Which melting point does the source give for `CCc1cn(C2CC(OC(C)=O)C(CCC(=O)Cc3c(Cl)cccc3Cl)O2)c(=O)[nH]c1=O` (stereo unspecified) here?
A: 186 °C

Q: For `Cc1cc2c(cc1N1CCCCCC1)OC(=O)C2C` (stereo unspecified), which melting point is on record?
A: 58 to 60 °C

Q: For `O=C(O)c1ccc2c(c1)C(=O)C(c1nc3ccccc3cc1O)C2=O` (stereo unspecified), which melting point is on record?
A: > 350 °C

Q: With `C(=NNc1cc(N2CCOCC2)nc(OCCc2ccccn2)n1)c1c[nH]c2ccccc12` as the molecule, how does the melting point read?
A: 160 to 165 °C

Q: Which melting point does the source give for `COC1C(O)C(CO)OC1n1cnc2c(NC3CCCCC3)ncnc21` (stereo unspecified) here?
A: 88 to 91 °C

Q: With `CS(=O)(=O)Nc1ccc(Cl)c(F)c1` as the molecule, how does the melting point read?
A: 109 to 111 °C

Q: With `Clc1ccccc1Cn1ncnc1I` as the molecule, how does the melting point read?
A: 98 °C

Q: For `N#CCc1ccccc1-c1ccc(C(=O)O)cc1`, which melting point is on record?
A: 218 to 220 °C

Q: Which melting point does the source give for `CC(Oc1ccc(Cl)cc1)(C(=O)O)C(F)(F)F` (stereo unspecified) here?
A: 141 to 142 °C

Q: For `Cc1cc(O)ccc1NC(=O)OC(C)(C)C`, which melting point is on record?
A: 143 to 144 °C

Q: With `COc1ccc(CN(C)CCN(C)Cc2ccc(NC(=O)c3cccc4c(=O)c5cccc(OC)c5[nH]c34)cc2)cc1OC` as the molecule, how does the melting point read?
A: 170 °C

Q: With `COc1ccc(C(C)(C)CCC(=O)O)cc1NC(=O)C[C@H]1O[C@H](c2cccc(OC)c2OC)c2cc(Cl)ccc2N(CC(C)(C)CO)C1=O` as the molecule, how does the melting point read?
A: 173 to 174 °C

Q: With `CC1(C)CCC(C)(C)c2cc(C(O)CNc3ccc(C(=O)O)c(O)c3)ccc21` (stereo unspecified) as the molecule, how does the melting point read?
A: 165 to 166 °C

Q: For `NC1=C(c2cccc(C(F)(F)F)c2)C(=O)OC1`, which melting point is on record?
A: 165 °C

Q: With `CCC(=O)OCc1c(C)cc([N+](=O)[O-])c(NC(CC)CC)c1[N+](=O)[O-]` as the molecule, how does the melting point read?
A: 27 to 29 °C

Q: For `O=C(NNC(=O)c1occ(-c2ccccc2)c1-c1ccccc1)c1ccsc1`, which melting point is on record?
A: 195 to 197 °C

Q: With `Cc1cc(F)c(F)c(C=O)c1O` as the molecule, how does the melting point read?
A: 53 to 56 °C

Q: For `Cc1ccc(-c2cccc(OC3SCC(O)C(O)C3O)c2)nc1` (stereo unspecified), which melting point is on record?
A: 185 to 189 °C

Q: Which melting point does the source give for `CCNCC1(C)CN(c2cc3c(cc2F)c(=O)c(C(=O)O)cn3C2CC2)C1` here?
A: 221 to 226 °C

Q: Which melting point does the source give for `CCOC(=O)COc1ccc(C(=O)Nc2ccccc2Oc2cccc(-c3nnn[nH]3)c2)cc1` here?
A: 165 to 166 °C

Q: Which melting point does the source give for `Cc1cccc(C2COc3cc(O)ccc3C2c2ccc(OCCN3CCCC3)cc2)c1` (stereo unspecified) here?
A: 85 to 90 °C
